PubChem BioAssay AID1963838 (Molecular Pharmacology Branch, DTP, NCI, 2024)

Test system: 855422-203-R-J1-PDC complex spheroid viability
Assay: Anticancer human tumor 855422-203-R-J1-PDC patient-derived bladder carcinoma cell line growth inhibition [POLQ]
Conditions: for IC50: curve of first compound; for viability, T/C: stronger effect = lower value
Procedure, shortened: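 Three-cell-type spheroids modelling solid tumor plus stroma served as the readout system; POL inhibitors were tested individually and in combination, concentration ranges set by clinical Cmax where known.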
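Also: spheroids exposed to compounds for seven days before readout.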

C=CC(=O)N1CCN(c2nc(=O)n(-c3c(C)ccnc3C(C)C)c3nc(-c4c(O)cccc4F)c(F)cc23)C(C)C1 (configuration not stated) + Cc1cccc(N(C)C(=O)C2C(O)CCN2c2nc(C)cc(C(F)(F)F)c2C#N)c1
IC50 (second compound 0.0316 µM): > 10 µM | IC50 (second compound 0.1 µM): > 10 µM | IC50 (second compound 0.316 µM): > 10 µM | IC50 (second compound 1 µM): > 10 µM | IC50 (second compound 3.16 µM): > 10 µM | IC50 (second compound 10 µM): > 10 µM | viability, T/C (second compound 0.0316 µM, first compound 0.0316 µM): 98.9% | viability, T/C (second compound 0.0316 µM, first compound 0.1 µM): 112% | viability, T/C (second compound 0.0316 µM, first compound 0.316 µM): 103% | viability, T/C (second compound 0.0316 µM, first compound 1 µM): 107% | viability, T/C (second compound 0.0316 µM, first compound 3.16 µM): 121% | viability, T/C (second compound 0.0316 µM, first compound 10 µM): 114% | viability, T/C (second compound 0.1 µM, first compound 0.0316 µM): 107% | viability, T/C (second compound 0.1 µM, first compound 0.1 µM): 105% | viability, T/C (second compound 0.1 µM, first compound 0.316 µM): 108% | viability, T/C (second compound 0.1 µM, first compound 1 µM): 114% | viability, T/C (second compound 0.1 µM, first compound 3.16 µM): 121% | viability, T/C (second compound 0.1 µM, first compound 10 µM): 111% | viability, T/C (second compound 0.316 µM, first compound 0.0316 µM): 107% | viability, T/C (second compound 0.316 µM, first compound 0.1 µM): 89.5% | viability, T/C (second compound 0.316 µM, first compound 0.316 µM): 99.7% | viability, T/C (second compound 0.316 µM, first compound 1 µM): 106% | viability, T/C (second compound 0.316 µM, first compound 3.16 µM): 128% | viability, T/C (second compound 0.316 µM, first compound 10 µM): 121% | viability, T/C (second compound 1 µM, first compound 0.0316 µM): 96.4% | viability, T/C (second compound 1 µM, first compound 0.1 µM): 108% | viability, T/C (second compound 1 µM, first compound 0.316 µM): 109% | viability, T/C (second compound 1 µM, first compound 1 µM): 107% | viability, T/C (second compound 1 µM, first compound 3.16 µM): 133% | viability, T/C (second compound 1 µM, first compound 10 µM): 107% | viability, T/C (second compound 3.16 µM, first compound 0.0316 µM): 104% | viability, T/C (second compound 3.16 µM, first compound 0.1 µM): 96% | viability, T/C (second compound 3.16 µM, first compound 0.316 µM): 113% | viability, T/C (second compound 3.16 µM, first compound 1 µM): 105% | viability, T/C (second compound 3.16 µM, first compound 3.16 µM): 118% | viability, T/C (second compound 3.16 µM, first compound 10 µM): 117% | viability, T/C (second compound 10 µM, first compound 0.0316 µM): 102% | viability, T/C (second compound 10 µM, first compound 0.1 µM): 108% | viability, T/C (second compound 10 µM, first compound 0.316 µM): 107% | viability, T/C (second compound 10 µM, first compound 1 µM): 109% | viability, T/C (second compound 10 µM, first compound 3.16 µM): 123% | viability, T/C (second compound 10 µM, first compound 10 µM): 114%
